In the assay the test system is P388 leukemia ip, CD2F1 mice, survival T/C. Put plainly: NCI In Vivo Anticancer Drug Screen. Data for tumor model P388 Leukemia (intraperitoneal) in CD2F1 (CDF1) mice. To be noted: endpoint: median survival time, higher = longer survival. In outline: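 Mice carrying the transplanted tumor received test compound or vehicle. Survival was recorded in each group, and the value is the treated-group measurement divided by that of the vehicle-treated control group.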

[1] abbreviates: dose: 25.0 mg/kg/injection, schedule: Q01DX005 (ip), vehicle: Klucel (hydroxypropylcellulose) (HPC).
Where [2] appears, read: dose: 50.0 mg/kg/injection, schedule: Q01DX005 (ip), vehicle: Klucel (hydroxypropylcellulose) (HPC).
Setting [3] is: dose: 100.0 mg/kg/injection, schedule: Q01DX005 (ip), vehicle: Klucel (hydroxypropylcellulose) (HPC).
Setting [4] is: dose: 200.0 mg/kg/injection, schedule: Q01DX005 (ip), vehicle: Klucel (hydroxypropylcellulose) (HPC).
Setting [5] is: dose: 60.0 mg/kg/injection, schedule: Q01DX005 (ip), vehicle: saline with Tween-80.
[6] abbreviates: dose: 120.0 mg/kg/injection, schedule: Q01DX005 (ip), vehicle: saline with Tween-80.
The mark [7] stands for this setting: dose: 240.0 mg/kg/injection, schedule: Q01DX005 (ip), vehicle: saline with Tween-80.
Setting [8] is: dose: 50.0 mg/kg/injection, schedule: Q01DX005 (ip), vehicle: saline with Tween-80.
The mark [9] stands for this setting: dose: 100.0 mg/kg/injection, schedule: Q01DX005 (ip), vehicle: saline with Tween-80.
Setting [10] is: dose: 200.0 mg/kg/injection, schedule: Q01DX005 (ip), vehicle: saline with Tween-80.
Setting [11] is: dose: 50.0 mg/kg/injection, schedule: Q01DX009 (ip), vehicle: saline with Tween-80.
The mark [12] stands for this setting: dose: 15.0 mg/kg/injection, schedule: Q01DX005 (ip), vehicle: saline.
[13] abbreviates: dose: 30.0 mg/kg/injection, schedule: Q01DX005 (ip), vehicle: saline.
Where [14] appears, read: dose: 60.0 mg/kg/injection, schedule: Q01DX005 (ip), vehicle: saline.
Setting [15] is: dose: 60.0 mg/kg/injection, schedule: Q01DX005 (ip), vehicle: Klucel (hydroxypropylcellulose) (HPC).
Where [16] appears, read: dose: 120.0 mg/kg/injection, schedule: Q01DX005 (ip), vehicle: Klucel (hydroxypropylcellulose) (HPC).
The mark [17] stands for this setting: dose: 240.0 mg/kg/injection, schedule: Q01DX005 (ip), vehicle: Klucel (hydroxypropylcellulose) (HPC).
[18] abbreviates: dose: 50.0 mg/kg/injection, schedule: Q01DX009 (ip), vehicle: saline.
Setting [19] is: dose: 100.0 mg/kg/injection, schedule: Q01DX009 (ip), vehicle: saline.
The mark [20] stands for this setting: dose: 12.5 mg/kg/injection, schedule: Q01DX009 (ip), vehicle: saline with Tween-80.
[21] abbreviates: dose: 25.0 mg/kg/injection, schedule: Q01DX009 (ip), vehicle: saline with Tween-80.
[22] abbreviates: dose: 12.5 mg/kg/injection, schedule: Q01DX005 (ip), vehicle: Klucel (hydroxypropylcellulose) (HPC).
Where [23] appears, read: dose: 100.0 mg/kg/injection, schedule: Q04DX003 (ip), vehicle: saline.
Where [24] appears, read: dose: 200.0 mg/kg/injection, schedule: Q04DX003 (ip), vehicle: saline.
Where [25] appears, read: dose: 400.0 mg/kg/injection, schedule: Q04DX003 (ip), vehicle: saline.

Our source for the T/C values is PubChem BioAssay AID330 (DTP/NCI, 2004).

Each structure is given as a SMILES string. Several values for one entry are separate records, joined by “and”; a condition that tells them apart may be missing. Equal values may be shown once. Toxic doses and inconclusive results are not listed.

For the compound `O=C(Nc1ccc(N=C(Nc2ccccc2)c2ccccc2)cc1)c1ccc(C(=O)Nc2ccc(N=C(Nc3ccccc3)c3ccccc3)cc2)cc1`, the T/C is 98 % of control under setting [1], 91 % of control under setting [2], 91 % of control under setting [3] and 86 % of control under setting [4].
Regarding `Nc1nc(N)c(NS(=O)(=O)c2ccccc2)c(=O)[nH]1`, the T/C runs as follows: under setting [5], 108 % of control; under setting [6], 100 % of control; under setting [7], 105 % of control.
With `CCCCCC(C(=O)O)(c1ccccc1)c1ccccc1`, the T/C reads like this: under setting [8], 106 % of control; under setting [9], 106 % of control; under setting [10], 106 % of control.
For `Cn1c2cc3ccccc3cc2nc2cc3c(cc21)c(Cl)c(=O)c1ccccc13`, the T/C runs as follows: under setting [11], 109 % of control; (dose: 100.0 mg/kg/injection, schedule: Q01DX009 (ip), vehicle: saline with Tween-80) 99 % of control; (dose: 200.0 mg/kg/injection, schedule: Q01DX009 (ip), vehicle: saline with Tween-80) 100 % of control.
Take `COc1cc(OC)c(C2SCC(=O)N2c2nnc(C(F)(F)F)s2)c(OC)c1` (centres undefined): the T/C (dose: 50.0 mg/kg/injection, schedule: Q01DX005 (ip), vehicle: saline + Tween-80 + alcohol) was 109 % of control; the T/C (dose: 100.0 mg/kg/injection, schedule: Q01DX005 (ip), vehicle: saline + Tween-80 + alcohol) was 102 % of control; the T/C (dose: 200.0 mg/kg/injection, schedule: Q01DX005 (ip), vehicle: saline + Tween-80 + alcohol) is 92 % of control.
With `CC(=O)C(C[n+]1ccccc1)c1ccccc1` (centres undefined), the T/C by setting is: under setting [12], 98 % of control; under setting [13], 98 % of control; under setting [14], 102 % of control and 107 % of control.
For the compound `COc1c(Br)c2c(c([N+](=O)[O-])c1OC)C(=O)OC2C1c2c(cc3c(c2OC)OCO3)CCN1C` (centres undefined), the T/C is 91 % of control under setting [1], 104 % of control under setting [2], 104 % of control under setting [3] and 103 % of control under setting [4].
`c1ccc(CC(Nc2cccnc2)c2ccccc2)cc1` (centres undefined): the T/C by setting is: under setting [15], 98 % of control; under setting [16], 104 % of control; under setting [17], 101 % of control.
On to `CCCCC[C@@H]1CCCC2C1CCC(CCCCCO)N2C(=O)OCC(Cl)(Cl)Cl` (some centres undefined), for which the T/C is, setting by setting: under setting [8], 100 % of control; under setting [9], 106 % of control; under setting [10], 100 % of control.
Regarding `CC(C)(CN1CCCN(CC(C)(C)C(=O)O)C1=O)C(=O)O`, the T/C is, setting by setting: under setting [18], 93 % of control; under setting [19], 94 % of control; (dose: 200.0 mg/kg/injection, schedule: Q01DX009 (ip), vehicle: saline) 98 % of control.
Turning to `CC(C#N)CCCC#N` (centres undefined), the T/C was 100 % of control under setting [20], 100 % of control under setting [21] and 100 % of control under setting [11].
`O=C(CSc1nc2ccccc2s1)NCCO`: the T/C was 97 % of control under setting [8], 99 % of control under setting [9] and 97 % of control under setting [10].
`O=c1c2ncn(C3OC(CO)C(O)C3O)c2nc2n(C3OC(CO)C(O)C3O)cnn12` (centres undefined): the T/C by setting is: under setting [14], 109 % of control; (dose: 120.0 mg/kg/injection, schedule: Q01DX005 (ip), vehicle: saline) 117 % of control; (dose: 240.0 mg/kg/injection, schedule: Q01DX005 (ip), vehicle: saline) 122 % of control.
`O=C1CSC(c2c(F)cccc2F)N1c1nncs1` (centres undefined): the T/C is 98 % of control under setting [8], 100 % of control under setting [9] and 98 % of control under setting [10].
Regarding `[O-][n+]1c2c(cc3ccccc31)Cc1ccccc1-2`, the T/C is, setting by setting: under setting [2], 109 % of control; under setting [3], 101 % of control; under setting [4], 106 % of control.
As to `N#CCS(=O)(=O)OCCCl`, the T/C (dose: 12.5 mg/kg/injection, schedule: Q01DX005 (ip), vehicle: saline with Tween-80) was 120 % of control and the T/C (dose: 37.5 mg/kg/injection, schedule: Q01DX005 (ip), vehicle: saline with Tween-80) is 151 % of control.
Consider `Nc1nn2nnnc2c2ccccc12`, for which the T/C by setting is: (dose: 25.0 mg/kg/injection, schedule: Q04DX002 (ip), vehicle: saline) 107 % of control; (dose: 50.0 mg/kg/injection, schedule: Q04DX002 (ip), vehicle: saline) 96 % of control; (dose: 100.0 mg/kg/injection, schedule: Q04DX002 (ip), vehicle: saline) 101 % of control and 89 % of control; (dose: 400.0 mg/kg/injection, schedule: Q04DX002 (ip), vehicle: saline) 92 % of control.
In the case of `COc1cc(OC)c(NC(=O)C(Sc2nc(C)cc(C)c2C#N)c2ccccc2)cc1Cl` (centres undefined), the T/C was 89 % of control under setting [22]; 92 % of control and 93 % of control under setting [1]; 100 % of control and 93 % of control under setting [2]; 98 % of control under setting [3]; 87 % of control under setting [4].
In the case of `Oc1ccccc1C1=CC=NCCN1`, the T/C is 96 % of control (dose: 15.0 mg/kg/injection, schedule: Q01DX005 (ip), vehicle: saline with Tween-80); 101 % of control (dose: 30.0 mg/kg/injection, schedule: Q01DX005 (ip), vehicle: saline with Tween-80); 101 % of control under setting [5].
As to `OCCN(CO)CCO`, the T/C was 117 % of control under setting [5], 123 % of control under setting [6] and 115 % of control under setting [7].
For `ClC(Cl)=C(Cl)Sc1ccccc1`, the T/C is 105 % of control under setting [8], 105 % of control under setting [9] and 107 % of control under setting [10].
`Cc1ccc(S(=O)(=O)CCC(=O)c2ccccc2)cc1`: the T/C reads like this: under setting [23], 104 % of control; under setting [24], 100 % of control; under setting [25], 101 % of control.
As to `CC(F)C(N)C(=O)O` (centres undefined), the T/C was 108 % of control and 117 % of control (dose: 6.25 mg/kg/injection, schedule: Q01DX009 (ip), vehicle: Klucel (hydroxypropylcellulose) (HPC)); 110 % of control and 118 % of control (dose: 12.5 mg/kg/injection, schedule: Q01DX009 (ip), vehicle: Klucel (hydroxypropylcellulose) (HPC)); 116 % of control (dose: 25.0 mg/kg/injection, schedule: Q01DX009 (ip), vehicle: Klucel (hydroxypropylcellulose) (HPC)); 106 % of control under setting [18]; 124 % of control under setting [19].
Turning to `CCC[CH2][Sn]([CH2]CCC)([S]CCS(=O)(=O)O)[S]CCS(=O)(=O)O`, the T/C under setting [15] is 100 % of control, the T/C under setting [16] was 101 % of control and the T/C under setting [17] was 99 % of control.
Take `COc1ccncc1CCc1cnccc1OC`: the T/C is, setting by setting: under setting [23], 99 % of control; under setting [24], 93 % of control; under setting [25], 90 % of control.
On to `CCCCc1nc2cc(CN3CCN(C(c4ccccc4)c4ccccc4)CC3)ccc2n1CC`, for which the T/C was 95 % of control (dose: 6.25 mg/kg/injection, schedule: Q01DX009 (ip), vehicle: saline with Tween-80); 101 % of control under setting [20]; 100 % of control under setting [21].
In the case of `Nc1nnc(CCC(=O)Nc2ccccc2Cl)o1`, the T/C was 98 % of control under setting [5], 101 % of control under setting [6] and 97 % of control under setting [7].
As for `COC(=O)c1n[nH]n(Cc2cccs2)c1=O` (tested in a mixture with another compound), the T/C under setting [2] is 108 % of control, the T/C under setting [3] is 103 % of control and the T/C under setting [4] is 97 % of control.
Regarding `[N-]=[N+]=N/C=C/C(=O)OCCBr`, the T/C is, setting by setting: under setting [12], 97 % of control; under setting [13], 103 % of control; under setting [14], 102 % of control and 97 % of control.
In the case of `C=CC[C@]1(S(=O)(=O)c2ccccc2)[C@@H](N(C)C)C[C@@H](O[Si](C)(C)C(C)(C)C)[C@@H]1/C=C/[C@H](CCCCC)O[Si](C)(C)C(C)(C)C`, the T/C is 107 % of control under setting [22], 111 % of control under setting [1] and 107 % of control under setting [2].
On to `Oc1ccccc1C=Nc1c(Cl)cc(Cl)cc1Cl`, for which the T/C is 105 % of control under setting [2], 109 % of control under setting [3] and 107 % of control under setting [4].
